The values below come from patent publication US4746667A, “Pharmaceutical composition containing 2-(2-benzimidazolyl thiomethyl) pyridine” (priority 1981, dated 1988).

In one experiment the test system is gastric acid secretion. The experiment is described as follows: Gastric Acid Secretion Inhibiting Effect on Conscious Dogs. Conditions: Canis lupus familiaris; dose 2 μmol/kg, oral (stomach tube), free base suspended in 0.5% Methocel; histamine-stimulated conscious Heidenhain pouch dogs; gastric juice collected 3 hours. The experiment is classed as in vivo. The procedure: Gastric Acid Secretion Inhibiting Effect on Conscious Dogs
Chronic gastric fistula dogs (Heidenhain pouch dogs) were used. These dogs have been surgically provided with a gastric cannula in the pouch. Following a 4 weeks' recovery period after surgery, tests were performed once a week on each dog. Food and water were withdrawn 18 hours before each test.
Gastric acid secretion was induced by continuous infusion of histamine at individual doses (100-300 μmol/kg, h), resulting in submaximal secretion of gastric acid. At least 2 hours after onset of stimulation, when the gastric acid secertion had reached a steady level, the test compounds in the form of free base suspended in 0.5% Methocel® (90 HG, 15.000, Dow Chem. corp.), were given orally by stomach tube. The gastric juice was collected by free flow from the gastric cannula in consecutive 30 minutes samples for 3 hours. The samples were titrated to pH 7.0 with 0.1M NaOH using a Radio-meter automatic titrator and the acid output was calculated.
The percent inhibition of acid secretion was calculated by comparing in each dog the acid output in the tests to the acid output in control tests when only the vehicle was given.
As for `COc1ccc2[nH]c(SCc3ncc(C)c(OC)c3C)nc2c1` [5-OCH3, H, H, CH3, OCH3, CH3, 2-[2-(3,5-dimethyl-4-methoxy)pyridylmethylthio]-(5-methoxy)benzimidazole], the inhibition in vivo – broadly, the share of the control response that was lost under treatment – at 2 µmol/kg was 75%.

In turn, `COC(=O)c1cc2nc(SCc3ncc(C)c(OC)c3C)[nH]c2cc1C` [5-COOCH3,6-CH3, H, CH3, OCH3, CH3, 2-[2-(3,5-dimethyl-4-methoxy)pyridylmethylthio]-(5-carbomethoxy-6-methyl)benzimidazole] gave an inhibition in vivo at 2 µmol/kg of 80%.

As to `COc1c(C)cnc(CSc2nc3cc(C)ccc3[nH]2)c1C` [5-CH3, H, H, CH3, OCH3, CH3], the inhibition in vivo at 2 µmol/kg came to 60%.

On to `COc1c(C)cnc(CSc2nc3cc(C(C)=O)c(C)cc3[nH]2)c1C` [5-COCH3,6-CH3, H, CH3, OCH3, CH3, 2-[2-(3,5-dimethyl-4-methoxy)pyridylmethylthio]-5-COCH3-6-CH3-benzimidazole], for which the inhibition in vivo at 2 µmol/kg amounted to 35%.

Turning to `COc1ccc2[nH]c(SCc3ncc(C)c(C)c3C)nc2c1` [5-OCH3, H, H, CH3, CH3, CH3], the inhibition in vivo at 2 µmol/kg was 75%.

Still in this experiment, the particulars now being: Canis lupus familiaris; dose 8 μmol/kg, oral (stomach tube), free base suspended in 0.5% Methocel; histamine-stimulated conscious Heidenhain pouch dogs; gastric juice collected 3 hours.
Regarding `CC(=O)c1cc2nc(SCc3cc(C)c(C)cn3)[nH]c2cc1C` [5-COCH3,6-CH3, H, H, CH3, CH3], the inhibition in vivo at 8 µmol/kg turned out to be 80%.

`COC(=O)c1ccc2[nH]c(SCc3ncc(C)c(OC)c3C)nc2c1` [5-COOCH3, H, H, CH3, OCH3, CH3] displayed an inhibition in vivo at 8 µmol/kg of 50%.

`COc1c(C)cnc(CSc2nc3cc(C(C)=O)ccc3[nH]2)c1C` [5-COCH3, H, H, CH3, OCH3, CH3]: the inhibition in vivo at 8 µmol/kg came to 90%.
